Results reported in US11618810B2, “Antiviral articles” (priority 2020, dated 2023).

How the values were obtained:
[1] = test system: IAV (H1N1)
Method: To investigate if zinc ions can directly inactivate IAV, influenza virus was incubated with varying concentrations of zinc chloride.

[2] = test system: SARS-CoV-2 S and N protein; assay: Western blot of SARS-CoV-2 S and N protein levels; conditions: SARS-CoV-2, after exposure
Method: FIG. 3C is a Western blot analysis of IAV HA and NP protein levels after exposure of IAV to the fabric of Example 3-A and comparative example A. Both the virus that was removed (eluate) from each fabric with PBSTE as well as the virus that remained on each fabric was analyzed and reported in FIG. 3D. Similarly, a Western blot analysis of SARS-CoV-2 S and N protein levels after exposure of virus to the Example 3-A and comparative example A as shown in FIG. 3E. Both the virus that was removed (eluate) from each fabric with PBSTE as well as the virus that remained on each fabric were analyzed and reported in FIG. 3F.
There was no effect on the viral nucleoprotein, which allowed use of the viral nucleoprotein as internal control. A similar altered surface protein to nucleoprotein ratio on the zinc-embedded PA66 fabrics was observed.

[3] = test system: IAV HA and NP protein; assay: Western blot of IAV HA and NP protein levels; conditions: for stability of virus surface protein HA: IAV, after exposure
[4] = test system: MDCK cells
[5] = test system: IAV NA segment; assay: RT-qPCR of viral RNA (NA segment); conditions: for viral RNA integrity (RT-qPCR): after treatment
[6] = IAV in the presence of zinc chloride

Structure (SMILES) | effect on viral titer ([1]; EDTA alone) | reduction on the IAV titer ([1]; 60 min incubation, varying concentrations, stopped with equimolar EDTA) | stability of virus surface protein S [2] | HA levels (western blot) [3, 6] | NP levels (western blot) [3, 6] | stability of virus surface protein HA [3] | cytotoxic effects in tissue culture [4] | viral NA segment levels (RT-qPCR) ([5]; IAV after zinc chloride and EDTA neutralization) | viral RNA integrity (RT-qPCR) [5]
O=C(O)CN(CCN(CC(=O)O)CC(=O)O)CC(=O)O [EDTA] | does not have any cytotoxic effects itself or reduce the viral titer | – | – | – | – | – | – | – | –
[Cl-].[Cl-].[Zn+2] [zinc chloride] | – | approximately 2 log | reduced stability | reduced in a concentration-dependent manner | did not diminish | reduced stability | cytotoxic | No effect | no significant reduction
[Cu+2] [copper ions] | – | – | aberrant migration | – | – | aberrant migration | – | – | no significant reduction
